Common to all, as to test: NCI tumour cell line growth inhibition, 48 h
Assay [1] has as its system COLO 205 colon.
Assay [2] deals with HCC-2998 colon.
Assay [3] has as its system HCT-116 colon.
The test system of assay [4] is HOP-62 NSCLC.
The subject of assay [5] is HOP-92 NSCLC.
Assay [6] relates to IGROV1 ovarian.
Assay [7] has as its system MDA-MB-231 breast.
Assay [8] has as its system NCI/ADR-RES ovarian.
The subject of assay [9] is SN12C renal.
Assay [10] relates to SR leukemia.

SMILES strings stand for the structures. Several values for one entry are separate records, joined by “and”; a condition that tells them apart may be missing. Equal entries are not always repeated.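 Interpolation was linear, between the two tested concentrations surrounding the appropriate level; five concentrations were tested over 48 hours in 96-well plates. GI50 is the concentration that inhibits growth by half. TGI: total growth inhibition.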

As to `O=C(/C=C\c1cc(Br)ccc1O)/C=C/c1cc(Br)ccc1O`, the GI50 was 1.55 µM in [1]; 1.51 µM in assay [2]; 0.345 µM in assay [3]; 3.22 µM in [4]; 1.57 µM in [5]; 1.6 µM in assay [6]. In addition, the GI50 in assay [7] is 0.372 µM; in [8], 0.321 µM; in assay [9] it was 1.47 µM; in [10], 0.321 µM. Also, the TGI came out at 3.69 µM in [1]; 2.89 µM in assay [2]; 1.26 µM in [3]; 9.44 µM in assay [4]; 3.69 µM in [5]; 3.62 µM in assay [6]. The TGI in [7] was 4.07 µM; in [8], 12.9 µM; in assay [9] it was 4.63 µM; in assay [10], 29.7 µM.

With `CC(C)n1nc(C#Cc2cccc(O)c2)c2c(N)ncnc21`, the GI50 is 1.53 µM and 1.89 µM in assay [1]; 2.4 µM and 4.46 µM in assay [2]; 1.17 µM and 0.586 µM in assay [3]; 1.18 µM and 1.3 µM in [4]; 0.489 µM and 0.187 µM in assay [5]; 0.856 µM in assay [6]. Further, the GI50 in assay [7] is 0.508 µM and 0.0966 µM; in [8], 2.38 µM and 1.87 µM; in assay [9], 0.894 µM and 0.532 µM; in assay [10], 1.17 µM and 0.573 µM. Besides, the TGI in assay [1] is 12.7 µM and 13.2 µM; in [2], 27.4 µM and 21.5 µM; in [3] it was 7.78 µM and 10.8 µM; in assay [4], 4.31 µM and 5 µM; in [5], 2.35 µM and 0.774 µM; in assay [6], 2.24 µM. For the same molecule, the TGI was 2.07 µM and 2.15 µM in assay [7]; 24.7 µM and 7.09 µM in [8]; 5.09 µM and 4.76 µM in assay [9]; 23.4 µM and 11.4 µM in assay [10].

Regarding `O=C(O)c1ccc(NCc2nc3ccccc3[nH]2)cc1`, the GI50 in assay [1], in assay [2], in assay [3], in [4], in assay [5] and in [6] was greater than 100 µM throughout. For the same molecule, the GI50 in [7], in assay [8], in [9] and in assay [10] was greater than 100 µM throughout. Also, the TGI in [1], in assay [2], in [3], in assay [4], in assay [5] and in [6] was greater than 100 µM in each case. The TGI in assay [7], in [8], in assay [9] and in assay [10] was greater than 100 µM in each case.

In the case of `Cc1ccc(/C=C(/C#N)n2nnc3ncccc32)cc1`, the GI50 in [1] was 2.25 µM; in assay [2], 3.37 µM; in assay [3], 2.2 µM; in assay [4], 3.17 µM; in assay [5] it was 1.82 µM; in assay [6], 2.28 µM. Moreover, the GI50 in [7] is 2.41 µM; in [8], 1.37 µM; in assay [9], 2.6 µM; in assay [10], 0.765 µM. Besides, the TGI in assay [1] turned out to be 10.5 µM; in [2] it was 12.2 µM; in [3], 11.1 µM; in assay [4], 12.9 µM; in [5] it was 6.19 µM; in [6], 21.5 µM. For the same molecule, the TGI is 8.44 µM in assay [7], greater than 100 µM in assay [8], 9.66 µM in [9] and 26.8 µM in [10].

For the molecule `O=C(NCCCl)NCCN1c2nc3ccccc3cc2Sc2cc3ccccc3nc21`, the GI50 in assay [1] is 1.32 µM; in assay [2], 1.68 µM; in assay [3] it was 0.8 µM; in [4] it was 2.8 µM; in assay [5], 0.722 µM; in assay [6], 0.71 µM. For the same molecule, the GI50 in assay [7] is 2.71 µM; in assay [8], 1.61 µM; in assay [9], 3.04 µM. The TGI was 2.66 µM in assay [1]; 5.09 µM in assay [2]; 3.43 µM in assay [3]; 9.87 µM in assay [4]; 7.47 µM in [5]; 25.3 µM in [6]. Further, the TGI was 17.8 µM in assay [7], 13 µM in [8], greater than 47.6 µM in assay [9] and greater than 23.3 µM in assay [10].

Regarding `NC(CP(=O)(O)O)C(=O)O` (centres undefined), the TGI in assay [1], in assay [2], in [3], in assay [4], in [5] and in assay [6] was greater than 100 µM each time. The TGI in [7], in assay [8], in assay [9] and in assay [10] was greater than 100 µM in each case.

Turning to `CC(=O)OC1CC2C(C)(C)CCC[C@]2(C)C2=C1C(O)=C(C(C)C)C(=O)C2=O` (some centres undefined), the GI50 in [1] is 1.47 µM; in assay [2], 0.228 µM; in assay [3], 0.499 µM; in assay [4], 2.13 µM; in assay [5] it was 0.123 µM; in [6] it was 1.53 µM. Moreover, the GI50 was 0.477 µM in assay [7], 0.817 µM in [8], 0.801 µM in assay [9] and 0.39 µM in [10]. In addition, the TGI in assay [1] stood at 3.33 µM; in assay [2], 0.546 µM; in [3], 1.99 µM; in assay [4] it was 4.47 µM; in assay [5] it was 0.547 µM; in [6], 5.52 µM. In addition, the TGI in assay [7] came out at 3.74 µM; in [8], 5.13 µM; in assay [9] it was 7.58 µM; in assay [10], 2.11 µM.

As for `C[C@]12CCCN1CC1=NNC(=O)c3cc(F)cc4[nH]c2c1c34`, the GI50 in assay [1] is 14.6 µM; in [2] it was 25.1 µM; in [3] it was 14.2 µM; in [4], 20.1 µM; in [5], 2.71 µM; in [6] it was 21.5 µM. Besides, the GI50 was 18 µM in [7], 20 µM in assay [8], 14.3 µM in [9] and 3.57 µM in assay [10]. The TGI in assay [1] was 40.6 µM; in assay [2] it was 91.6 µM; in assay [3], greater than 100 µM; in assay [4], 89.4 µM; in assay [5] it was 20.7 µM; in assay [6], greater than 100 µM. The TGI in assay [7] is 66.5 µM; in assay [8] it was 71.8 µM; in assay [9], 79.1 µM; in [10] it was greater than 100 µM.

Take `CCOC(=O)C1=C(C)NC(C)=C(C(=O)OCCNC(=O)c2ccc(N=[N+]=[N-])cc2)C1c1ccccc1C(F)(F)F` (centres undefined): the TGI is 11 µM in assay [1]; 21.5 µM in assay [2]; 21.5 µM in assay [3]; greater than 21.5 µM in assay [4]; 18.9 µM in assay [5]; 21.5 µM in assay [6]. The TGI in assay [7], in [8], in assay [9] and in assay [10] was 21.5 µM in each case.

Consider `C=C1C(=O)O[C@@H]2C[C@@H]1CC[C@]1(C)O[C@H]1CC/C(C)=C/CC[C@@]2(C)O`, for which the GI50 was 18.1 µM in assay [1]; 10.6 µM in [2]; 13.1 µM in [3]; 24.2 µM in assay [4]; 29.1 µM in assay [5]; 31.7 µM in assay [6]. In addition, the GI50 in assay [7] is 21.4 µM; in assay [8], 20.9 µM; in [9], 18.6 µM; in assay [10], 4.07 µM. In addition, the TGI is 34.8 µM in assay [1]; 23.6 µM in [2]; 25.8 µM in assay [3]; 47.7 µM in assay [4]; 82.7 µM in [5]; greater than 100 µM in [6]. For the same molecule, the TGI in [7] was determined as 48.8 µM; in assay [8], 56.3 µM; in [9], 41.1 µM; in [10], 15.7 µM.
